Assay results as given in US5296494A, “Pyrrolidine compounds having thromboxane A2 receptor antagonistic activity and thromboxane A2 synthase inhibiting activity” (Adir et Compagnie, priority 1991, dated 1994).
Counter-ions that a name gives are not always drawn.

Key:
[1] = system: thromboxane receptor (increase in tracheal pressure caused by U46619); assay: IC50 on tracheal pressure in guinea pigs (U46619-induced bronchoconstriction); type: in vivo, guinea pig; settings: anesthetized guinea pigs, antagonist injected 5 minutes before U46619 (2 μg/kg i.v.); for ED50: Cavia porcellus, iv, 5 min, read-out: IC50, dose of antagonist that inhibits by 50% the increase in tracheal pressure caused by U46619
Source text: IC50 on tracheal pressure in guinea pigs
Male albino guinea pigs (350-400 g) subjected to an 18-hour water diet are anesthetized with ethyl carbamate (1.25 g/kg i.p.). A catheter is introduced into the carotid artery in order to measure the arterial blood pressure by means of a pressure cell. A second catheter is introduced into the jugular vein and is used to inject the pharmacological substances. The trachea is cannulated and the guinea pig is placed in assisted respiration by means of a respirator. The animal's temperature is maintained at 37° C. using a thermostated blanket. A needle pushed into the tracheal cannula is connected to a pressure cell and enables the tracheal pressure to be recorded.
The guinea pigs are pretreated with d-tubocurarine (1 mg/kg i.v.) and with indomethacin (10 mg/kg i.v.). Injected at a dose of 2 μg/kg i.v., U46619 produces a bronchoconstriction which leads to an increase in tracheal pressure and induces an increase in arterial blood pressure. The responses to U46619 are reversible and reproducible if the injections are carried out every 10 minutes.
The thromboxane receptor antagonists are injected 5 minutes before the injections of U46619. The dose of antagonist that inhibits by 50% the increase in tracheal pressure caused by U46619 is determined (IC50).

guinea pig trachea = molecular target: T1, guinea pig trachea (Cavia porcellus, UniProt A0A286Y4I8); assay: Determination of the pA2 values on guinea pig trachea (U46619-induced contraction); type: cell-based; settings: isolated guinea pig trachea rings, 37° C., agonist U46619, antagonist contact 20 minutes
T1 construct: the trachea is rapidly removed and then cut into two-cartilage rings; from tissue; host or cells: guinea pig trachea, two-cartilage rings (isolated organ)
T1 sequence (A0A286Y4I8 1-347): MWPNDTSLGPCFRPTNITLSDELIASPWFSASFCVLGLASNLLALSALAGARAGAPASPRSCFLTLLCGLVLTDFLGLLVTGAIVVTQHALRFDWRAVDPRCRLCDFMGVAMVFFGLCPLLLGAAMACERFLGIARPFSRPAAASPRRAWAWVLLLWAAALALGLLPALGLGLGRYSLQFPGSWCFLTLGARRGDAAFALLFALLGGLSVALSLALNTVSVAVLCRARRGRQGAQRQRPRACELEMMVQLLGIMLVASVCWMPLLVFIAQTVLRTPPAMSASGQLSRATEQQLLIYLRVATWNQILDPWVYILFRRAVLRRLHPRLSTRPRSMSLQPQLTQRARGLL
Experimental: Determination of the pA2 values on guinea pig trachea
Male albino guinea pigs weighing 400-500 grams were sacrificed by a blow to the back of the neck and by cervical elongation. The throat is opened and the trachea is rapidly removed and then cut into two-cartilage rings. These rings are mounted between two hooks in cells thermostated at 37° C. containing physiological fluid (composition in mM:NaCl 118; NaHCO3 25; glucose 10; KCl 4.7; CaCl2 1.25; MgSO4 1.19; KH2 PO4 1.14).
A 95% O2 /5% CO2 mixture is bubbled through the physiological solution. The lower hook constitutes the fixed point while the upper hook is connected to an isometric strength gage. The tissues are placed under a baseline tension of 3.5 grams. The test pharmacological substances are prepared immediately before use. The drugs are solubilized in water or in dimethyl sulfoxide.
After mounting, the preparations are left standing for 90 minutes, rinses being performed every 30 minutes. After readjustment of the baseline tension, a contraction produced by a single dose of agonist (U46619; 10^-5 M) is produced in order to make the following contractions consist. After washing and return to the baseline, a first effect/concentration curve is established by adding cumulative doses of U46619 (10^-9 M to 10^-5 M, with semi-log spacing between the doses). This first experiment enables the "control" 50% effective concentration (EC50) to be calculated.
This EC50 is routinely calculated in the following manner: the tension values are first converted to percentages relative to the maximum effect, these percentages then being plotted on a graph with the percentages as ordinates and the log (concentration) values as abscissae. A linear regression is then carried out on the points lying between 10% and 90% (which corresponds to the linear portion of the sigmoid curve). The concentration corresponding to half the maximum effect (50%) may be readily calculated using the parameters of the linear plot.
After washing and return to the baseline, the organ is brought into contact with the antagonist ([…]) for 20 minutes. A second effect/concentration curve is then established in the presence of the antagonist, and the "treated" EC50 can then be calculated. All the elements enabling the pA2 (competitive antagonism) or pD2 (non-competitive antagonism) to be calculated are thereby obtained.
The pA2 (which represents the negative logarithm of the antagonist concentration in the presence of which twice as much agonist is required in order to obtain the same effect) is determined by plotting on a graph the values of log ((L/1)-1) with respect to log (antagonist concentration), where L=effect in presence of antagonist and 1=control effect.

thromboxane synthase = molecular target: T2, thromboxane synthase (Oryctolagus cuniculus, UniProt G1TAZ9); assay: Anti-thromboxane synthase activity (TXB2 levels in serum of rabbit blood, radio immunoassay); type: cell-based; settings: 37° C., one hour, serum TXB2 by radio immunoassay, read-out: IC50, inhibition of TXB2 level
T2 construct: from tissue; host or cells: rabbit whole blood (clotting; by own knowledge the enzyme is chiefly that of platelets)
T2 sequence (G1TAZ9 1-530): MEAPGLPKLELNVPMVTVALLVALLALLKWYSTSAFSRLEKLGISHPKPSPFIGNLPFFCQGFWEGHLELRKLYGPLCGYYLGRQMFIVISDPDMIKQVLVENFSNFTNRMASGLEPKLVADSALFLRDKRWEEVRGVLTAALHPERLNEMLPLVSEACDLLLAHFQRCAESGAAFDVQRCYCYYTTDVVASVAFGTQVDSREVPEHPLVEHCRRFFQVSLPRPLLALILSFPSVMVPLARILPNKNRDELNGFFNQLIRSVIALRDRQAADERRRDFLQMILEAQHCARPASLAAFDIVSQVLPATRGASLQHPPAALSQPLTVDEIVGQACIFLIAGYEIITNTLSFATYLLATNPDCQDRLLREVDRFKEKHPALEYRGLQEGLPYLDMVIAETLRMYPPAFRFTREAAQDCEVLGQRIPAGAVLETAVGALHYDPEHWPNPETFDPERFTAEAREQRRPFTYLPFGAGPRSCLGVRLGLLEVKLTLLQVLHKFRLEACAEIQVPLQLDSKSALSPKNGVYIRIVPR
Experimental: Anti-thromboxane synthase activity
Albino New Zealand rabbits weighing approximately 2 kg are used. These rabbits are anesthetized with pentobarbital (30 mg/kg i.v.). Blood is collected via carotid catheter in dry glass tubes, in the proportion of 1 ml per tube, in the presence or absence of different concentrations of inhibitor. The inhibitors are diluted in physiological fluid in order to avoid possible hemolysis.
The tubes are placed in a water bath at 37° C. for one hour. After coagulation, the tubes are cooled to 4° C. and centrifuged at 2000 g for 20 minutes in order to separate the serum from the clot. The serum may be frozen at -20° C. for 2 weeks for a subsequent assay.
The levels of TXB2, the stable metabolite of TXA2, in the serum are determined by radio immunoassay.
The levels obtained in the presence of the different doses of inhibitor are converted to a percentage inhibition relative to the baseline level of TXB2, in order to calculate the IC50 of the inhibitor. The latter is obtained by non-linear regression using the following equation (Michaelis L, Menten ML, Die Kinetik der Invertinwirkung, Biochem. Zeitschrifft, 1913, 49, 333-369):
I=(Imax * C^n) / (IC^n +C^n)
C=inhibitor concentration

[2] = system: platelet aggregation response induced by U46619 (TXA2 receptor agonist); assay: Platelet aggregation: inhibition of U46619-induced aggregation of rabbit platelet-rich plasma; type: cell-based; settings: Oryctolagus cuniculus, rabbit PRP, 37° C., antagonist 3 min before U46619 (1.2 μM), read-out: IC50, concentration inducing 50% inhibition of the aggregation response induced by U46619
Experimental: Rabbits (2-3 kg) are anesthetized with pentobarbital sodium (30 mg/kg i.v.). After cannulation of the left carotid artery, blood is withdrawn onto sodium citrate (0.109M) (1 vol. of citrate per 9 vol. of blood).
Platelet-rich plasma (PRP) is obtained by centrifugation (20° C.) at 250 g for 20 minutes, and platelet- poor plasma (PPP) by centrifugation at 1000 g (10 min). The number of platelets (PL) in the PRP is adjusted to 300-350,000 PL/mm^3 by dilution with autologous PPP. The PRP is stored at the temperature of the room until the time of the test, and is used within 4 hours following withdrawal.
Platelet aggregation is carried out at 37° C. in siliconed glass tubes using an aggregometer. The PRP and PL are stirred at 1000 rpm (revolutions per minute). In order to study the activity of thromboxane antagonists, the PRP is incubated for 1 min at 37° C., and the antagonist is then added for a period of 3 min before addition of the agonist U46619 (1.2 μM). The final volume in the cell is then 250 μl. The intensity of platelet aggregation is established by taking the maximum amplitude of the aggregation plots and is expressed as a percentage light transmission (% T). The activity of the antagonists is expressed as IC50, that is to say the concentration of the substance which induces a 50% inhibition of the aggregation response induced by U46619.

Row | Compound | IC50, dose of antagonist that inhibits by 50% the increase in tracheal pressure caused by U46619 [1] [mg/kg] | Kb (guinea pig trachea) [µM] | IC50 (thromboxane synthase) [µM] | IC50 [2] [µM] | ED50 [1] [mg/kg]
1 | O=C([O-])CC/C=C\C[C@@H]1CCN(S(=O)(=O)c2ccc(F)cc2)[C@H]1c1ccccc1.[Na+] [Example 4, (4Z)-6-[(2α,3α)-1-(4-Fluorophenylsulfonyl)-2-phenyl-3-pyrrolidinyl]-4-hexenoic acid sodium salt] | 0.7 |  |  |  | 
2 | O=C(O)CC/C=C\C[C@@H]1CCN(Cc2cccnc2)[C@@H]1c1cccc(O)c1 (relative stereo) [Example 26, (4Z)-6-{(2α,3α)-1-[(3-Pyridyl)methyl]-2-(3-hydroxyphenyl) -3-pyrrolidinyl}-4-hexenoic acid sodium salt] |  | 0.0309 |  |  | 0.03
3 | O=C(O)CCCCC[C@@H]1CCN(S(=O)(=O)c2ccc(F)cc2)[C@@H]1c1cccnc1 (relative stereo) [Example 20, 6-[(2α,3α)-1-(4-Fluorophenylsulfonyl)-2-(3-pyridyl)-3-pyrrolidinyl) hexanoic acid sodium salt] |  |  | 60 |  | 
4 | O=C(O)CC/C=C\C[C@@H]1CCN(Cc2cccnc2)[C@@H]1c1ccccc1 (relative stereo) [Example 21, (4Z)-6-{(2α,3α)-1-[(3-Pyridyl)methyl]-2-phenyl-3-pyrrolidinyl}-4-hexenoic acid sodium salt] |  | 0.00182 | 8.5 |  | 0.17
5 | O=C(O)CCCCC[C@@H]1CCN(Cc2cccnc2)[C@@H]1c1ccccc1 (relative stereo) [Example 22, 6-{(2α,3α)-1-[(3-Pyridyl)methyl]-2-phenyl-3-pyrrolidinyl}hexanoic acid sodium salt] |  | 7.08 |  |  | 

Continued, in another order:

Row | IC50, dose of antagonist that inhibits by 50% the increase in tracheal pressure caused by U46619 [1] [mg/kg] | Kb (guinea pig trachea) [µM] | IC50 (thromboxane synthase) [µM] | IC50 [2] [µM] | Compound | ED50 [1] [mg/kg]
6 |  | 0.0631 |  |  | COc1cccc([C@@H]2[C@H](C/C=C\CCC(=O)O)CCN2S(=O)(=O)c2ccc(F)cc2)c1 (relative stereo) [Example 1, (4Z)-6-[(2α,3α)-1-(4-Fluorophenylsulfonyl)-2-(3-methoxyphenyl)-3-pyrrolidinyl]-4-hexenoic acid sodium salt] | 
7 |  |  | 200 |  | O=C(O)CC/C=C\C[C@@H]1CCN(S(=O)(=O)c2ccc(F)cc2)[C@@H]1c1cccnc1 (relative stereo) [Example 2, (4Z)-6-[(2α,3α)-1-(4-Fluorophenylsulfonyl)-2-(3-pyridyl)-3-pyrrolidinyl]-4-hexenoic acid sodium salt] | 
8 |  | 0.01 |  | 20 | O=C(O)CC/C=C\C[C@@H]1CCN(S(=O)(=O)c2ccc(F)cc2)[C@@H]1c1cccc(O)c1 (relative stereo) [Example 14, (4Z)-6-[(2α,3α)-1-(4-Fluorophenylsulfonyl)-2-(3-hydroxyphenyl)-3-pyrrolidinyl]-4-hexenoic acid sodium salt] | 0.07
9 |  | 0.0398 |  | 20 | O=C(O)CCC/C=C\C[C@@H]1CCN(S(=O)(=O)c2ccc(F)cc2)[C@@H]1c1cccc(O)c1 (relative stereo) [Example 15, (5Z)-7-[(2α,3α)-1-(4-Fluorophenylsulfonyl)-2-(3-hydroxyphenyl)-3-pyrrolidinyl]-5-heptenoic acid sodium salt] | 0.16
